Key:
[1] = system: MPTP-lesioned macaques; test: L-DOPA induced dyskinesia (LID) in MPTP-lesioned macaques, monkey dyskinesia rating scale; assay type: in vivo, Macaca fascicularis; conditions: group 1 (L-DOPA+vehicle); challenge with L-DOPA 12, 20, 30 or 40 mg/kg p.o.
Description: Ten female cynomolgus monkeys (macaques) (Macaca fascicularis, 3.0-4.5 kg, 4-6 years old) were acclimatised to the experimental setting and procedures for 3 months and baseline behaviour was assessed in all animals. The macaques received MPTP (0.2 mg/kg/day, s.c.) until moderate-marked, stable, parkinsonian symptoms developed.
Following stabilisation of parkinsonian disability, the macaques were administered L-DOPA (Madopar, 20 mg/kg b.i.d., p.o.) for 19 weeks before being administered L-DOPA+vehicle (hydroxypropylmethylcellulose, HPMC, 0.5% w/v containing Tween 80, 0.2% v/v, group 1, n=5) or L-DOPA+smilagenin (20 mg/kg/day, p.o., group 2, n=5) for a further 18 weeks. Smilagenin was then washed out for 10 weeks and all the macaques received only L-DOPA twice daily over this 10 week period.
Following the 10 week washout, the macaques were challenged with L-DOPA (6, 12, 20, 30 or 40 mg/kg, p.o.) or vehicle and the level of dyskinesia over the subsequent 6 h period was assessed by a neurologist blinded to treatment using a monkey dyskinesia rating scale. […] Each macaque received a challenge once every 3 days and received every challenge (vehicle and L-DOPA, 6, 12, 20, 30 or 40 mg/kg) in a randomised order over the course of the experiment. On the days between challenges, the macaques received L-DOPA (20 mg/kg, b.i.d., p.o.) as normal.
The MPTP-lesioned and L-DOPA treated macaques used in this experiment provide an accepted model for L-DOPA-induced dyskinesia.

[2] = system: MPTP-lesioned macaques; test: On-time (time without bradykinesia) in MPTP-lesioned macaques after L-DOPA challenge; assay type: in vivo, Macaca fascicularis; conditions: both groups; L-DOPA challenge 6-40 mg/kg p.o.
Description: Analysis was performed using a two-way ANOVA with group and L-DOPA dose as factors.

## N[C@@H](Cc1ccc(O)c(O)c1)C(=O)O [L-DOPA, L-3,4-dihydroxyphenylalanine]
[1]
  Dyskinesia following challenge with L-DOPA: dose-dependent dyskinesia up to the 30 mg/kg dose
[2]
  Effect of L-DOPA on amount of on-time: increased the amount of on-time

Reference: patent US20130210786A1, “TREATMENT OF L-DOPA, DOPAMINE AGONIST AND/OR DOPAMINE ENHANCER INDUCED DISORDERS” (priority 2010, published 2013)
